In the supplement of paper PMC8671470:

What was measured:
Conditions in all cases: 72 h
HL-60 [1] = test: area under dose-response curve (viability, 1 nM-10 uM) (fraction (0-1)); higher = more sensitive
Outline: (§1)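 HL-60 cells in RPMI 1640 with 10% FBS were rescreened against the full library on 384-well plates at five tenfold concentrations, 1–10,000 nM, in duplicate. Each screen was run with DMSO or 100 nM of one of three metabolic inhibitors, for 72 h at 37 °C, 5% CO2. Viability was read by CellTiter-Glo and normalised to DMSO and 10 μM proteasome-inhibitor wells. Where given, area under the curve came from four-parameter log-logistic fits (drc, PharmacoGx).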

ML-2 [2] = test: cell viability (% survival relative to DMSO control, bortezomib = 0%); higher = less cytotoxic
Outline: (§2)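 Fifteen myeloid leukaemia cell lines (10 AML, 5 CML) were seeded at a density titrated to the linear growth range into 384-well plates pre-printed with compounds at 1, 10, 100, 1000 or 10000 nM in duplicate. Plates were incubated for 72 h at 37 °C with 5% CO2. Viability was then read by CellTiter-Glo luminescence. Each value is percent survival averaged over the duplicates, with vehicle set to 100% and a 10 µM positive control to 0%.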

MV4-11 [3] = test: as above
Outline: as §2

MOLM-13 [4] = test: as above
Outline: as §2

HEL [5] = test: as above
Outline: as §2

LAMA-84 [6] = test: as above
Outline: as §2

K-562 [7] = test: as above
Outline: as §2

KG-1 [8] = test: as above
Outline: as §2

KCL-22 [9] = test: as above
Outline: as §2

HL-60 [10] = test: as above
Outline: as §2

BV-173 [11] = test: as above
Outline: as §2

SHI-1 [12] = test: as above
Outline: as §2

HL-60 [13] = test: cell viability (% survival relative to DMSO control); higher = less cytotoxic
Outline: as §1

ML-2 [14] = system: ML-2
Outline: (§3)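 Fifteen myeloid leukaemia lines in RPMI 1640 were treated for 72 h at 37 °C and 5% CO2 with five tenfold doses from 1 to 10,000 nM, in duplicate. ATP luminescence was normalised to vehicle and to a positive control at 10 µM, then fitted with a four-parameter log-logistic model. The IC50 came from these fits.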

MV4-11 [15] = system: MV4-11
Outline: as §3

MOLM-13 [16] = system: MOLM-13
Outline: as §3

HEL [17] = system: HEL
Outline: as §3

KU-812 = system: KU-812
Outline: as §3

LAMA-84 [18] = system: LAMA-84
Outline: as §3

K-562 [19] = system: K-562
Outline: as §3

Mono-Mac-6 = system: Mono-Mac-6
Outline: as §3

KG-1 [20] = system: KG-1
Outline: as §3

NOMO-1 = system: NOMO-1
Outline: as §3

KCL-22 [21] = system: KCL-22
Outline: as §3

HL-60 [22] = system: HL-60
Outline: as §3

BV-173 [23] = system: BV-173
Outline: as §3

SHI-1 [24] = system: SHI-1
Outline: as §3

THP-1 = system: THP-1
Outline: as §3

C#CCN[C@@H]1CCc2ccccc21 [Rasagiline]
Conditions	area under dose-response curve, co-treatment: AZD3965 100 nM	area under dose-response curve, co-treatment: DMSO vehicle	area under dose-response curve, co-treatment: GSK2194069 100 nM	area under dose-response curve, co-treatment: pictilisib 100 nM	cell viability, 1 nM [%]	cell viability, 10 nM [%]	cell viability, 100 nM [%]	cell viability, 1000 nM [%]	cell viability, 10000 nM [%]
BV-173 [11]	–	–	–	–	92.1	104	111	93.6	92.4
HEL [5]	–	–	–	–	118	115	117	90.1	135
HL-60 [1]	< 0.0301	< 0.0301	< 0.0301	< 0.0301	–	–	–	–	–
HL-60 [10]	–	–	–	–	95.8	86.6	96.9	76.2	135
K-562 [7]	–	–	–	–	103	100	100	87.5	84.2
KCL-22 [9]	–	–	–	–	80.3	108	98.4	89.7	135
KG-1 [8]	–	–	–	–	88.3	116	98.5	89.8	114
LAMA-84 [6]	–	–	–	–	98.2	106	106	91.8	97.2
ML-2 [2]	–	–	–	–	89.9	104	105	87.2	104
MOLM-13 [4]	–	–	–	–	93.9	109	111	95.9	111
MV4-11 [3]	–	–	–	–	97.8	104	108	91.7	96
SHI-1 [12]	–	–	–	–	97.8	103	100	95.3	117

cell viability [%], HL-60 [13]
Conditions	0.001 µM	0.01 µM	0.1 µM	1 µM	10 µM
co-treatment: AZD3965 100 nM	102	96.6	100	97.1	99.9
co-treatment: DMSO vehicle	101	102	102	100.1	95.4
co-treatment: GSK2194069 100 nM	105	107	100	102	99.9
co-treatment: pictilisib 100 nM	89.6	87.5	103	95.6	102

Conditions	IC50 (cell viability) [µM]
BV-173 [23]	> 10
HEL [17]	> 10
HL-60 [22]	> 10
K-562 [19]	> 10
KCL-22 [21]	> 10
KG-1 [20]	> 10
KU-812	> 10
LAMA-84 [18]	> 10
ML-2 [14]	> 10
MOLM-13 [16]	> 10
MV4-11 [15]	> 10
Mono-Mac-6	> 10
NOMO-1	> 10
SHI-1 [24]	> 10
THP-1	> 10
